Read-outs that look alike come from different tables or passages of the source.
Columns and labels:
KRAS^WT [1] = target: T1, KRAS^WT (Homo sapiens, UniProt P01116); test: cell-based; parameters: KRAS degradation by capillary electrophoresis immunodetection
T1 construct: endogenous wild type
Protocol: Protein Detection by Capillary Electrophoresis Cells (50 000) were seeded the day before treatment into 96-well clear-flat bottom plates and incubated overnight (37 °C, humidified tissue culture incubator, 5% CO2). Compounds were added from DMSO stock solution using a digital dispenser and cells are incubated at 37 °C as specified (24 hours for KRAS degradation, 6 hours for determination of pERK levels). At the end of the incubation, medium was removed, cells washed with ice cold PBS, PBS removed and 50 µL lysis buffer (Meso Scale Discovery #R60TX-2) supplemented with 1:100 protease inhibitor solution, 1:100 phosphatase inhibitor I, 1:100 phosphatase inhibitor II (Meso Scale Discovery #R70AA-1), 0.5 µL/mL Benzonase (Novagen #70664-3) and 10 mM dithiothreitol added to each well. Plates with lysis buffer were immediately transferred to -80 °C freezer for at least 2 hours and then thawed on ice. Lysates were transferred to a 96 well V-bottom plate and insoluble debris was pelleted by centrifugation for 20 min. at 4 000 rpm. 40 µL of the supernatant were transferred to a fresh Eppendorf PCR plate. Analysis of protein levels was conducted using the Wes System, ProteinSimple (https://www.bio-techne.com/) as specified by the manufacturer. Briefly, Wes Master Mix (12-230 kDa WES Separation Module, 8 × 25 capillary cartridges, ProteinSimple #SM-W004) and molecular weight markers were prepared as specified in the manufacturer’s recommendations. To detect primary antibodies, anti-rabbit (Protein Simple #DM-001) or anti-mouse (Protein Simple #DM-002) detection modules were used. 7.2 µL lysate + 1.8 µL master mix were combined and heated to 95 °C for 5 min. […] Next, we set out to test the ability of a single pan-KRAS degrading molecule, compound 4, to selectively suppress oncogenic signaling and proliferation in cancer cell lines driven by diverse KRAS mutants. To this end, we first confirmed degradation of KRAS by compound 4 in KRAS-dependent (GP2d, SW620 and NCI-H358 expressing KRAS^G12D, - G12V or -G12C, respectively) as well as in KRAS independent (A-375, HEK293) cell lines (Fig. 3A, fig. S4A). […] Both inhibition and degradation repressed the established markers of MAPK signaling pERK (fig. S4B-D) and DUSP6 (Fig. 3B, fig. S4E) in KRAS dependent cell lines. […] Neither degradation nor inhibition had appreciable antiproliferative effects in the KRAS independent cell lines A-375 and HEK293 (Fig. 3C, fig. S4F).

[2] = target: T2, VCB:KRAS ternary complex partners (Homo sapiens, UniProt P01116+P40337, P01116:C118S/P01116:G12D); test: biochemical; parameters: SPR binary and ternary complex binding affinity and kinetics; details: SPR; for kon: read-out: SPR VCB+KRAS^G12D kon [1/(M s)]
T2 construct: VCB (Avi-tagged, biotinylated for SPR) plus KRAS 1-169 C118S GDP; E. coli, His6 tags removed; with Elongin-C; Elongin-B
T2 sequence (Q15370 1-104): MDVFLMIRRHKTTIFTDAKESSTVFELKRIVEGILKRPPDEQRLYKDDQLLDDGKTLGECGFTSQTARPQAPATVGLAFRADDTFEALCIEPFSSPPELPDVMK
T2 sequence (P01116 1-169 G12D/C118S): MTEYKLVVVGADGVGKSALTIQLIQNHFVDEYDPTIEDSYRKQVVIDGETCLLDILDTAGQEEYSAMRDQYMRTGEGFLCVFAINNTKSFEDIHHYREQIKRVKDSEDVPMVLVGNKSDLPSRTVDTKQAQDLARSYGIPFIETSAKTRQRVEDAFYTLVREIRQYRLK
T2 sequence (Q15369 17-112, further chain): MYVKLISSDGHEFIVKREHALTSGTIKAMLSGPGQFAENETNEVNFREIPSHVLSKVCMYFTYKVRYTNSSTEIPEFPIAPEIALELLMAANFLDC
T2 sequence (P40337 54-213): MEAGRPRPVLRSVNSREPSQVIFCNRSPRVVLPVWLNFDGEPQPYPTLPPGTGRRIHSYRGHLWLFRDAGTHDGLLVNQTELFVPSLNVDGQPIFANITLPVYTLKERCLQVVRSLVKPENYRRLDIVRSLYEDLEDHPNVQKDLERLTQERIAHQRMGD
Description: With the objective of identifying molecules that potently degrade multiple KRAS mutants we next sought to employ structure-based design using the solved ternary co-crystal structure of compound 3 to improve ternary complex stability and intracellular VHL engagement. […] Analysis of the VCB:compound 3:KRAS^G12V co-crystal structure (Fig. 1H) highlighted an opportunity to enhance interactions within the ternary complex by improving π-stacking between the exit vector amide of the VHL ligand and Tyr112. We therefore switched the amide for an isoxazole, which has been previously reported to improve VCB affinity in this position in other contexts ([22]), yielding compound 4 (Fig. 2A). A ternary complex co-crystal structure of VCB:compound 4:KRAS^G12V (PDB 8QW7) confirmed a consistent overall binding mode to that observed for compound 3 (RMSD = 0.72 Å), with compound 4 able to engage in π-stacking interaction between the isoxazole and Tyr112 of VCB as designed (Fig. 2B). […] FP, SPR and cellular target engagement studies support a minor improvement in binary VHL engagement for compound 4, with moderate cooperativity retained (fig. S2A-C, table S1). […] We then investigated the impact of these structural changes on degradation kinetics in live HiBiT-tagged GP5d cells (fig. S3A-D). […] Aiming to measure ternary complex stability, we noted that the FP assay reached the limits of quantification due to ternary KD approaching that of the assay probe (fig. S8B).

KRAS^G12D = KRAS^G12D (Homo sapiens, UniProt P01116, G12D); parameters: endogenous; KRAS degradation by capillary electrophoresis immunodetection; details: read-out: DC50 24 h GP2d
KRAS^G12D, sequence (P01116 whole entry G12D): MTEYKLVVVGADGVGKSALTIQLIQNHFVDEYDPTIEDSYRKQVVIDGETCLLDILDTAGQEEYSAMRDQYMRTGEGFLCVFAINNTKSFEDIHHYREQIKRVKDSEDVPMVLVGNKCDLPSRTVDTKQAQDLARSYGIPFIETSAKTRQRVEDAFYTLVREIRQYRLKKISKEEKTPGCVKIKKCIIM

KRAS^WT [3] = target: T1, KRAS^WT; parameters: KRAS degradation by capillary electrophoresis immunodetection; details: read-out: DC50 24 h HEK293
Protocol: (§1) Protein Detection by Capillary Electrophoresis Cells (50 000) were seeded the day before treatment into 96-well clear-flat bottom plates and incubated overnight (37 °C, humidified tissue culture incubator, 5% CO2). Compounds were added from DMSO stock solution using a digital dispenser and cells are incubated at 37 °C as specified (24 hours for KRAS degradation, 6 hours for determination of pERK levels). At the end of the incubation, medium was removed, cells washed with ice cold PBS, PBS removed and 50 µL lysis buffer (Meso Scale Discovery #R60TX-2) supplemented with 1:100 protease inhibitor solution, 1:100 phosphatase inhibitor I, 1:100 phosphatase inhibitor II (Meso Scale Discovery #R70AA-1), 0.5 µL/mL Benzonase (Novagen #70664-3) and 10 mM dithiothreitol added to each well. Plates with lysis buffer were immediately transferred to -80 °C freezer for at least 2 hours and then thawed on ice. Lysates were transferred to a 96 well V-bottom plate and insoluble debris was pelleted by centrifugation for 20 min. at 4 000 rpm. 40 µL of the supernatant were transferred to a fresh Eppendorf PCR plate. Analysis of protein levels was conducted using the Wes System, ProteinSimple (https://www.bio-techne.com/) as specified by the manufacturer. […]

KRAS^G12C = KRAS^G12C (Homo sapiens, UniProt P01116, G12C); parameters: endogenous in NCI-H358; KRAS degradation by capillary electrophoresis (Wes) immunodetection; details: NCI-H358; 6 h; degrader
KRAS^G12C, sequence (P01116 whole entry G12C): as the sequence (P01116 whole entry G12D) above, with D12C counted along it
Protocol: as §1, with “Compounds were added from DMSO stock solution using a digital dispenser and cells are incubated at 37 °C as specified (24 hours for KRAS degradation, 6 hours for determination of pERK levels).” left out, “manufacturer. Briefly, Wes Master Mix (12-230 kDa WES Separation Module, 8 × 25 capillary cartridges, ProteinSimple #SM-W004) and molecular weight markers were prepared as specified in the manufacturer’s recommendations. To detect primary antibodies, anti-rabbit (Protein Simple #DM-001) or anti-mouse (Protein Simple #DM-002) detection modules were used.” for “manufacturer.”

[4] = A-375, read-out: Dmax 24 h A375 [%]
[5] = HEK293, read-out: Dmax 24 h HEK293 [%]

T1 sequence (P01116 whole entry): as the sequence (P01116 whole entry G12D) above, with D12G counted along it

Dmax (KRAS^WT [1]; [4]) [%]	Dmax (KRAS^WT [1]; [5]) [%]	kon [2] [M⁻¹ s⁻¹]	DC50 (KRAS^G12D) [nM]	Kd [2] [nM]	DC50 (KRAS^WT [3]) [nM]	DC50 (KRAS^G12C) [nM]	Compound
< 15	< 20	–	–	–	–	–	Cc1ncsc1-c1ccc(CNC(=O)C2CC(O)CN2C(=O)C(c2cc(OCCCCN3CCCN(c4nccc(-c5noc(C6(C)CCCc7sc(N)c(C#N)c76)n5)n4)C(C)C3)no2)C(C)C)cc1 (stereo not drawn) [compound 5]
–	–	224000	–	–	–	–	Cc1ncsc1-c1ccc(CNC(=O)[C@@H]2C[C@@H](O)CN2C(=O)[C@@H](NC(=O)COCCCN2CCCN(c3nccc(-c4noc([C@@]5(C)CCCc6sc(N)c(C#N)c65)n4)n3)[C@@H](C)C2)C(C)(C)C)cc1 [compound 2]
–	–	–	3.9	–	–	–	Cc1ncsc1-c1ccc([C@H](CO)NC(=O)[C@@H]2C[C@@H](O)CN2C(=O)[C@H](C(C)C)n2cc(OCCCCN3CCCN(c4nccc(-c5noc([C@@]6(C)CCCc7sc(N)c(C#N)c76)n5)n4)[C@@H](C)C3)nn2)cc1 [compound 7, ACBI3]
76	48	242000	76.3	30 ± 6	> 1000	159	Cc1ncsc1-c1ccc(CNC(=O)[C@@H]2C[C@@H](O)CN2C(=O)[C@@H](NC(=O)CCCCCN2CCCN(c3nccc(-c4noc([C@@]5(C)CCCc6sc(N)c(C#N)c65)n4)n3)[C@@H](C)C2)C(C)(C)C)cc1 [compound 3]
100	–	–	3.6	–	86.7	19.6	Cc1ncsc1-c1ccc(CNC(=O)[C@@H]2C[C@@H](O)CN2C(=O)[C@@H](c2cc(OCCCCN3CCCN(c4nccc(-c5noc([C@@]6(C)CCCc7sc(N)c(C#N)c76)n5)n4)[C@@H](C)C3)no2)C(C)C)cc1 [compound 4]

Source: paper doi:10.1101/2023.10.24.563163v2, “Targeting cancer with small molecule pan-KRAS degraders” (biorxiv, 2024)
